The source of these data is PubChem BioAssay (NCI).

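Five compound concentrations were applied to cells in 96-well plates for 48 hours; endpoints were derived by simple linear interpolation of the resulting dose-response curve. GI50 is the concentration that inhibits growth by half. TGI is the concentration that stops growth completely.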

Holding throughout (assay): growth of human tumour cells (NCI), 48 h
Test [1] relates to SK-MEL-2 melanoma.
The subject of test [2] is KM12 colon.
The subject of test [3] is OVCAR-3 ovarian.
Test [4] deals with A498 renal.
Test [5] relates to RXF 393 renal.
In test [6] the test system is OVCAR-4 ovarian.
In test [7] the test system is HCT-116 colon.
Test [8] concerns SK-MEL-28 melanoma.
The test system of test [9] is T-47D breast.
The test system of test [10] is HCT-15 colon.

With `CN1CCN(c2ccc3nc(-c4[nH]ncc4Nc4ncnc5c4OCCCN5)[nH]c3c2)CC1`, the GI50 is 0.0124 µM in test [1]; below 0.0105 µM in test [2]; below 0.01 µM in test [3]; below 0.013 µM in test [4]; below 0.01 µM in test [5]; 0.0162 µM in test [6]. Further, the GI50 was below 0.01 µM in test [7], 0.0161 µM in test [8], 0.0129 µM in [9] and 0.0259 µM in test [10]. For the same compound, the TGI amounted to 0.0468 µM in [1]; 0.109 µM in test [2]; 0.0422 µM in test [3]; 0.0341 µM in test [4]; 0.104 µM in test [6]; 1.09 µM in test [7]. The TGI in test [8] is 0.104 µM; in [9] it was 0.155 µM; in test [10] it was 0.63 µM.
For `C=C(C)[C@@H]1CC[C@]2(C(=O)O)CC[C@]3(C)[C@H](CC[C@@H]4[C@@]5(C)C/C(=C/c6cccc(I)c6)C(=O)C(C)(C)[C@@H]5CC[C@]43C)[C@@H]12`, the GI50 was 2.4 µM in test [1]; 1.59 µM in [2]; 1.78 µM in test [3]; 2.1 µM in [4]; 2.88 µM in [5]; 2.38 µM in test [6]. The GI50 in test [7] is 1.78 µM; in [8], 3.09 µM; in [9], 2.9 µM; in test [10], 2.63 µM. For the same compound, the TGI in test [1] was determined as 6.94 µM; in test [2], 3.6 µM; in [3] it was 3.7 µM; in [4], 6.72 µM; in test [5] it was 11.8 µM; in test [6], 8.28 µM. Also, the TGI was 3.53 µM in [7], 10.1 µM in test [8], 19 µM in [9] and 10.2 µM in test [10].
With `CCOC(=O)c1ccc(N(C=O)CCC(=O)CCl)cc1`, the GI50 was 0.465 µM in [1]; 0.4 µM in [2]; 0.399 µM in [3]; 1.47 µM in test [4]; 0.26 µM in [5]; 0.079 µM in test [6]. For the same compound, the GI50 in test [7] is 0.0342 µM; in [8], 1.74 µM; in test [9], 1.16 µM; in test [10], 0.0487 µM. Besides, the TGI amounted to 2.14 µM in [1]; 15.4 µM in test [2]; 1.35 µM in [3]; 5.87 µM in test [4]; 4.49 µM in [5]; 3.61 µM in [6]. The TGI is 1.73 µM in [7], 15.2 µM in test [8], 3.45 µM in test [9] and 2.58 µM in test [10].
Regarding `CC(C)=CC(=O)N[C@@H]1CC2CCC3C(CC[C@@]4(C)C3CC[C@@H]4C(C)N(C)C)[C@@]2(C)C[C@@H]1O` (some centres undefined), the GI50 is 14.4 µM in [1]; 4.41 µM in test [2]; 5.14 µM in test [3]; 5.19 µM in test [4]; 3.12 µM in test [5]; 4.32 µM in test [6]. Moreover, the GI50 was 1.63 µM in [7], 1.91 µM in test [8], 1.94 µM in test [9] and 1.39 µM in test [10]. In addition, the TGI in test [1] was 38.2 µM; in [2] it was 30.1 µM; in [3], 21.9 µM; in test [4], 28.8 µM; in test [5] it was 12.2 µM; in test [6] it was above 62 µM. The TGI worked out at 5.27 µM in test [7], 3.89 µM in test [8], 31.2 µM in test [9] and 5.01 µM in test [10].
Turning to `O=c1c2c(=NCCN3CCCC3)cc3c(=O)n(CCCN4CCOCC4)c(=O)c4ccc(c(O)n1CCCN1CCOCC1)c2c4-3`, the GI50 in test [1] was 0.239 µM; in [2], 0.131 µM; in [3], 0.0994 µM; in test [4], 0.173 µM; in test [5] it was 0.104 µM; in test [6], 0.13 µM. For the same compound, the GI50 in test [7] is below 0.0174 µM; in test [8], 0.454 µM; in [9], 0.273 µM; in test [10] it was below 0.0201 µM. Moreover, the TGI worked out at 0.874 µM in [1]; 1.22 µM in test [2]; 1 µM in test [3]; 0.981 µM in test [4]; 0.266 µM in test [5]; 0.735 µM in test [6]. The TGI was 1.09 µM in test [7], 1.74 µM in test [8], 2.2 µM in [9] and 0.946 µM in [10].
Consider `CCOC(=O)c1ccccc1SC(C[N+](=O)[O-])c1ccccc1` (centres undefined), for which the GI50 in test [1] was 18.9 µM; in test [2], 3.21 µM; in test [3] it was 10.4 µM; in [4], 3.63 µM; in test [5], 1.64 µM; in test [6], 12.9 µM. The GI50 in [7] is 1.46 µM; in [8], 1.91 µM; in test [9], 5.32 µM; in test [10], 2.37 µM. For the same compound, the TGI in test [1] is 36.6 µM; in test [2], 10.4 µM; in [3], 22.4 µM; in [4] it was 16 µM; in test [5], 3.09 µM; in test [6], 25.5 µM. Further, the TGI in test [7] came to 2.98 µM; in test [8], 3.74 µM; in test [9], 42.6 µM; in [10], 6.78 µM.
On to `Fc1ccc([C@@H]2CCNC[C@H]2COc2ccc3c(c2)OCO3)cc1`, for which the GI50 is 5.72 µM in [1]; 3.86 µM in [2]; 10.5 µM in test [3]; 5.52 µM in [4]; 5.28 µM in [5]; 10.6 µM in [6]. For the same compound, the GI50 is 6.07 µM in test [7], 5.96 µM in test [8], 5.53 µM in test [9] and 11 µM in test [10]. Also, the TGI in test [1] came to 18.5 µM; in [2], 14.1 µM; in test [3] it was 22.8 µM; in [4] it was 19.2 µM; in test [5] it was 20.1 µM; in test [6] it was 23.1 µM. Besides, the TGI in test [7] came to 21.8 µM; in [8], 19 µM; in [9], 20.4 µM; in test [10] it was 27 µM.
